US11058661B2, “Compositions and methods for lowering triglycerides in a subject on concomitant statin therapy and having hsCRP levels of at least about 2 mg/L” (priority 2018, dated 2021)

What was measured:
[1] = tested on: patients with baseline hsCRP ≥2.0 mg/L (safety population); assay: ANCHOR post-hoc subgroup: treatment-emergent adverse events; type: in vivo, human
Excerpt: The evaluation of safety included monitoring of treatment-emergent adverse events (TEAEs), defined as any AEs that began after the first dose of study medication or that worsened in severity during the double-blind treatment period. TEAEs reported herein included total TEAEs and those occurring in 3% […] of patients in any treatment group of the overall ANCHOR study population (i.e., nausea, diarrhea, nasopharyngitis, and arthralgia). The median difference in percent change from baseline between 4 g per day EPA-E and placebo groups for the primary efficacy variable and additional assessments were estimated with the Hodges-Lehmann method (P values from the Wilcoxon rank-sum test for treatment comparisons) where departures from normality were observed; for normally distributed parameters, an ANCOVA model was used with least square means (LS) and standard error (SE). Missing values were imputed using the last-observation-carried-forward method. For all post hoc analyses, the alpha level for statistical significance was 0.05. Safety analyses were based on the safety population (all randomized patients who received at least one dose of the study drug).

[2] = tested on: statin-treated patients with fasting TG ≥200 and <500 mg/dL and baseline hsCRP ≥2.0 mg/L; assay: ANCHOR post-hoc subgroup: lipid parameters, lipoproteins, markers of oxidation and inflammation; type: in vivo, human; details: for reduction of TG compared with placebo: printed as a reduction
Description: A multi-center, placebo-controlled, randomized, double-blind, 12-week study is performed to evaluate the efficacy and safety of >96% E-EPA in patients with fasting triglyceride levels ≥200 mg/dl and <500 mg/dl despite statin therapy (the mean of two qualifying entry values needs to be ≥185 mg/dl and at least one of the values needs to be ≥200 mg/dl). The primary objective of the study is to determine the efficacy of >96% E-EPA 2 g daily and 4 g daily, compared to placebo, in lowering fasting TG levels in patients with high risk for cardiovascular disease and with fasting TG levels ≥200 mg/dL and <500 mg/dL, despite treatment to LDL-C goal on statin therapy.
The population for this study is men and women >18 years of age with a body mass index ≤45 kg/m^2 with fasting TG levels greater than or equal to 200 mg/dl and less than 500 mg/dl and on a stable does of statin therapy (with or without ezetimibe). The statin must be atorvastatin, rosuvastatin or simvastatin. The dose of statin must be stable for ≥4 weeks prior to the LDL-C/TG baseline qualifying measurement for randomization. The statin dose will be optimal such that the patients are at their LDL-C goal at the LDL-C/TG baseline qualifying measurements. The same statin at the same dose will be continued until the study ends.
At the end of the 4-week diet and lifestyle stabilization period or the 6-week diet and stabilization and washout period, eligible patients will enter the 2-week LDL-C and TG qualifying period and will have their fasting LDL-C and TG levels measured at Visit 2 (Week-2) and Visit 3 (Week-1). Eligible patients must have an average fasting LDL-C level ≥40 mg/dL and <100 mg/dL and an average fasting TG level ≥200 mg/dL and <500 mg/dL to enter the 12-week double-blind treatment period. The LDL-C and TG levels for qualification will be based on the average (arithmetic mean) of the Visit 2 (Week-2) and Visit 3 (Week-1) values. If a patient's average LDL-C and/or TG levels from Visit 2 and Visit 3 fall outside the required range for entry into the study, an additional fasting lipid profile can be collected 1 week later at Visit 3.1. If a third sample is collected at Visit 3.1, entry into the study will be based on the average (arithmetic mean) of the values from Visit 3 and Visit 3.1.
After confirmation of qualifying fasting LDL-C and TG values, eligible patients will enter a 12-week, randomized, double-blind treatment period. At Visit 4 (Week 0), patients will be randomly assigned to 1 of the following treatment groups: • >96% E-EPA 2 g daily, • >96% E-EPA 4 g daily, or • Placebo.
>96% E-EPA is provided in 1 g liquid-filled, oblong, gelatin capsules. The matching placebo capsule is filled with light liquid paraffin and contains 0 g of >96% E-EPA. >96% E-EPA capsules are to be taken with food (i.e. with or at the end of a meal).
During the double-blind treatment period, patients will take 2 capsules (>96% E-EPA or matching placebo) in the morning and 2 capsules in the evening for a total of 4 capsules per day. • Patients in the >96% E-EPA 2 g/day treatment group will receive 1>96% E-EPA 1 g capsule and 1 matching placebo capsule in the morning and in the evening. • Patients in the >96% E-EPA 4 g/day treatment group will receive 2>96% E-EPA 1 g capsules in the morning and evening.
For TG, TC, HDL-C, LDL-C, calculated non-HDL-C, and VLDL-C, baseline will be defined as the average of Visit 4 (Week 0) and the preceding lipid qualifying visit (either Visit 3 [Week-1] or if it occurs, Visit 3.1) measurements. Baseline for all other efficacy parameters will be the Visit 4 (Week 0) measurement.
For TG, TC, HDL-C, LDL-C, calculated non-HDL-C, and VLDL-C, Week 12 endpoint will be defined as the average of Visit 6 (Week 11) and Visit 7 (Week 12) measurements.
Week 12 endpoint for all other efficacy parameters will be the Visit 7 (Week 12) measurement. […]

[3] = 4 g/day vs placebo, baseline to week 12, Hodges-Lehmann median
[4] = 4 g/day vs placebo, baseline to week 12, Hodges-Lehmann median, listed as EPA-E
[5] = 4 g/day, baseline to week 12, median

CC/C=C\C/C=C\C/C=C\C/C=C\C/C=C\CCCC(=O)OCC [Icosapent Ethyl, ethyl eicosapentaenoate]
patients with arthralgia ([1]; 4 g per day): 2.3% | patients with diarrhea ([1]; 4 g per day): 3.8% | patients with nasopharyngitis ([1]; 4 g per day): 0.8% | patients with nausea ([1]; 4 g per day): 2.3% | patients with TEAEs (irrespective of causality) ([1]; 4 g per day, 60 of 131): 45.8% | patients discontinued due to an AE ([1]; 4 g per day, subarachnoid hemorrhage, ruptured cerebral aneurysm, brain edema, not considered related): One | Patients With TEAEs: Any TEAE ([1]; 4 g/day, n = 131): 60 (45.8) n (%) | Patients With TEAEs: Arthralgia ([1]; 4 g/day, n = 131): 3 (2.3) n (%) | Patients With TEAEs: Diarrhea ([1]; 4 g/day, n = 131): 5 (3.8) n (%) | Patients With TEAEs: Nasopharyngitis ([1]; 4 g/day, n = 131): 1 (0.8) n (%) | Patients With TEAEs: Nausea ([1]; 4 g/day, n = 131): 3 (2.3) n (%) | Apo B Median Difference in % Change From Baseline vs Placebo [2, 3]: −7.4% | Apo C-III Median Difference in % Change From Baseline vs Placebo [2, 3]: −16.0% | HDL-C Median Difference in % Change From Baseline vs Placebo [2, 3]: −5.2% | ICAM-1 Median Difference in % Change From Baseline vs Placebo [2, 3]: +1.1% | IL-6 Median Difference in % Change From Baseline vs Placebo [2, 3]: −4.2% | LDL-C Median Difference in % Change From Baseline vs Placebo [2, 3]: −5.0% | Lp-PLA2 Median Difference in % Change From Baseline vs Placebo [2, 3]: −19.6% | RLP-C Median Difference in % Change From Baseline vs Placebo [2, 3]: −23.0% | TC Median Difference in % Change From Baseline vs Placebo [2, 3]: −11.1% | TG Median Difference in % Change From Baseline vs Placebo [2, 3]: −19.9% | VLDL-C Median Difference in % Change From Baseline vs Placebo [2, 3]: −21.0% | VLDL-TG Median Difference in % Change From Baseline vs Placebo [2, 3]: −22.9% | Apo C-III Median Difference in % Change From Baseline vs Placebo [2, 4]: −16% | TG Median Difference in % Change From Baseline vs Placebo [2, 4]: −20% | hsCRP Median Difference in % Change From Baseline vs Placebo [2, 4]: −17.9% | Apo B Change From Baseline, % [2, 5]: −0.5% | Apo C-III Change From Baseline, % [2, 5]: −7.7% | HDL-C Change From Baseline, % [2, 5]: −2.1% | ICAM-1 Change From Baseline, % [2, 5]: +3.3% | IL-6 Change From Baseline, % [2, 5]: −1.6% | LDL-C Change From Baseline, % [2, 5]: +2.8% | Lp-PLA2 Change From Baseline, % [2, 5]: −13.3% | Non-HDL-C Change From Baseline, % [2, 5]: −4.5% | Ox-LDL Change From Baseline, % [2, 5]: −2.9% | RLP-C Change From Baseline, % [2, 5]: −26.3% | TC Change From Baseline, % [2, 5]: −2.6% | VLDL-C Change From Baseline, % [2, 5]: −11.8% | hsCRP Change From Baseline, % [2, 5]: −10.5% | reduction of TG compared with placebo [2, 5]: 19.9% | reduction of TG compared with placebo ([2]; 4 g/day, baseline to week 12, median, listed as EPA-E): about 19.9% | Apo B End of Treatment ([2]; 4 g/day, week 12, median): 93.5 mg/dL | Apo C-III End of Treatment ([2]; 4 g/day, week 12, median): 14.0 mg/dL | Apo C-III End of Treatment (Table 3) ([2]; 4 g/day, week 12, median): 14 mg/dL | HDL-C End of Treatment ([2]; 4 g/day, week 12, median): 36.0 mg/dL | ICAM-1 End of Treatment ([2]; 4 g/day, week 12, median): 300.5 ng/mL | IL-6 End of Treatment ([2]; 4 g/day, week 12, median): 2.8 pg/mL | LDL-C End of Treatment ([2]; 4 g/day, week 12, median): 83.5 mg/dL | Lp-PLA2 End of Treatment ([2]; 4 g/day, week 12, median): 163.0 ng/mL | Non-HDL-C End of Treatment ([2]; 4 g/day, week 12, median): 125.0 mg/dL | Ox-LDL End of Treatment ([2]; 4 g/day, week 12, median): 54.1 U/L | TC End of Treatment ([2]; 4 g/day, week 12, median): 166.0 mg/dL | VLDL-C End of Treatment ([2]; 4 g/day, week 12, median): 38.0 mg/dL | VLDL-TG End of Treatment ([2]; 4 g/day, week 12, median): 154.5 mg/dL | hsCRP End of Treatment ([2]; 4 g/day, week 12, median): 3.7 mg/L | TG End of Treatment ([2]; 4 g/day, week 12, median, fasting): 220.8 mg/dL
